As a reminder, the CC50 is the concentration giving 50% cytotoxicity. By AC50 is commonly meant the concentration at which the activity in the assay is half-maximal.

The source of these data is ChEMBL document CHEMBL1201862, “PubChem BioAssay data set” (2004).

Molecules are shown by their SMILES. Calls of active or inactive are those of the source. Cut-off read from the data, not from the text of the source, for most assays here: actives have a measured EC50 and inactives only a lower limit.

A short description of experiment [1]: HEp-2 cell cytotoxicity, dose response, cytotoxicity control for RSV inhibitor project, HTS (AID 2410). The class given is functional. Particulars: human respiratory syncytial virus.
For experiment [2], the target named is T1, Rac GTPase-activating protein 1 (Homo sapiens, UniProt Q9H0H5).
T1 sequence (Q9H0H5 whole entry): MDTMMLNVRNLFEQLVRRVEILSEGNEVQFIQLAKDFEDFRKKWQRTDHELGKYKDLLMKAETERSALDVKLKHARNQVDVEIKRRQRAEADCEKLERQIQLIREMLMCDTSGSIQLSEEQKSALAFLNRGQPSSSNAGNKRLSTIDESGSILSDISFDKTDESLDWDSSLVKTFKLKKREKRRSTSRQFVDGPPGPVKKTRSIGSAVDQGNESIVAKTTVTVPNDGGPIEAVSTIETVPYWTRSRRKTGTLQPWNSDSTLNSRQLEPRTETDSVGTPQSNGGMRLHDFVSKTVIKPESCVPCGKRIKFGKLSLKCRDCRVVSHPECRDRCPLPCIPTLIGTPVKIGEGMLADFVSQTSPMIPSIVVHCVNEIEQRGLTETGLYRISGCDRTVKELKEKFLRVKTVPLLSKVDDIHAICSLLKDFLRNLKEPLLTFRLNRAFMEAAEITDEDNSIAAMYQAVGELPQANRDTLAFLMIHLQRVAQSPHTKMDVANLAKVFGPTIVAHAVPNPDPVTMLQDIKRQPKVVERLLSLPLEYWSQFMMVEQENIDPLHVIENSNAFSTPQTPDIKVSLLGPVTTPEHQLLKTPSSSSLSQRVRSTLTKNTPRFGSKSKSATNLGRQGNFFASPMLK
Nature of the experiment: MgcRacGAP GTPase-activating activity inhibitors, confirmation, biochemical, ADP Hunter fluorescence, primary and confirmatory (AID 624330). Type of experiment: functional.

Experiment [3] in a line: Luminescence Cell-Based Dose Confirmation HTS to Identify Inhibitors of Platelet Dense Granule Release. [Related pubchem assays: 1663 (Primary HTS), 1678 (Summary of Project)]. The class given is functional.
Experiment [4] addresses Luciferin 4-monooxygenase (Photinus pyralis, UniProt P08659). In words: firefly luciferase enzyme inhibitors, dose response, biochemical, luminescence (AID 1891).
Experiment [5] in a line: Luminescence Cell-Based Dose Response HTS to Identify Inhibitors of 5'UTR Stem-Loop Driven Prion Protein mRNA Translation in H4 Neuroglioblastoma Cells. [Related pubchem assays: 1827 (Project Summary), 1813 (Primary HTS)]. Type of experiment: functional.
Experiment [6] in a line: cytotoxicity toward NIH3T3 fibroblasts, dose response, counter-screen, cell-based, ATP luminescence, mouse fibroblasts (AID 2010).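 Note: cells exposed to compound for about 90 hours before reading.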 The class given is functional. In general terms: Counterscreens check selectivity or assay interference.
A short description of experiment [7]: Luminescence Cell-Based Dose Retest to Confirm Inhibitors of Cancer Stem Cells. [Related pubchem assays (depositor defined):AID2717, AID2721]. Type of experiment: functional. To be noted: Homo sapiens.
The nature of experiment [8]: inhibitors of intracellular T. cruzi replication, confirmation, NIH3T3 host cells, beta-gal luminescence (AID 2044).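 Note: intracellular parasites grown in NIH/3T3 mouse fibroblasts as host cells; luminescent beta-galactosidase reporter signal from transgenic T. cruzi replicating inside host cells; inhibitors lower the luminescence signal.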 The class given is functional, cell-based.
For experiment [9], the target named is T2, Heat shock factor protein 1 (Mus musculus, UniProt P38532).
T2 sequence (P38532 whole entry): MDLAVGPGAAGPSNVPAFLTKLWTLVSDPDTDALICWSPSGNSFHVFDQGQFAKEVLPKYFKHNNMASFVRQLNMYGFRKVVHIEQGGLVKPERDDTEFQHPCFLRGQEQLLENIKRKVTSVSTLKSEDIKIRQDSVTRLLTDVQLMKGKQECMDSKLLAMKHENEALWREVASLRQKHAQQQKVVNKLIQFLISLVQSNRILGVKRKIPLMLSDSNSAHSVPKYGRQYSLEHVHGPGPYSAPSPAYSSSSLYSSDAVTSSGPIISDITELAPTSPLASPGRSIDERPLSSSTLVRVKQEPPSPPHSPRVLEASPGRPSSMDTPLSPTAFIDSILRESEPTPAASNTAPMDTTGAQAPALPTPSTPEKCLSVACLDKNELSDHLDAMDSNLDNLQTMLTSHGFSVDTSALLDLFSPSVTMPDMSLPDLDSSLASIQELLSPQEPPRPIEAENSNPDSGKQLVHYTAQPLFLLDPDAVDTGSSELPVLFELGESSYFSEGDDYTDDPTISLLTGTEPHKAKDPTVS
In words: HSF1 potentiators in luciferase reporter cells, confirmation, cell-based, NIH3T3, luminescence, dose retest (AID 435004).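 Note: stress induced by proteasome inhibitor MG132 added 30 min after compound; luciferase reporter driven by HSF1 response element in NIH3T3 cells; actives raise luminescence as potentiators of the MG132 stress response.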 Type of experiment: functional. (In general: A reporter such as luciferase makes a cellular process visible.)

The target in another experiment is Cytochrome P450 3A4 (Homo sapiens, UniProt P08684).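 Note: CYP3A4 tested as one member of a cytochrome P450 panel screen.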
In a further experiment the test system is H4. In words: Luminescence Cell-Based Dose Response HTS to Identify Activators of 5'UTR Stem-Loop Driven Prion Protein mRNA Translation in H4 Neuroglioblastoma Cells. [Related pubchem assays: 1829 (Project Summary), 1814 (Primary HTS)]. The class given is functional. Particulars: Homo sapiens.
A short description of experiment [10]: Luminescence Cell-Based Dose Response HTS to Identify Activators of Luciferase Translation or Activity in H4 […] Cells. [Related pubchem assays: 1829 (Project Summary), 1814 (Primary HTS)]. The class given is functional.
For experiment [11], the target named is T3, Corticotropin-releasing factor receptor 2/Corticotropin-releasing factor-binding protein (Homo sapiens, UniProt P24387+Q13324).
T3 sequence (Q13324 whole entry): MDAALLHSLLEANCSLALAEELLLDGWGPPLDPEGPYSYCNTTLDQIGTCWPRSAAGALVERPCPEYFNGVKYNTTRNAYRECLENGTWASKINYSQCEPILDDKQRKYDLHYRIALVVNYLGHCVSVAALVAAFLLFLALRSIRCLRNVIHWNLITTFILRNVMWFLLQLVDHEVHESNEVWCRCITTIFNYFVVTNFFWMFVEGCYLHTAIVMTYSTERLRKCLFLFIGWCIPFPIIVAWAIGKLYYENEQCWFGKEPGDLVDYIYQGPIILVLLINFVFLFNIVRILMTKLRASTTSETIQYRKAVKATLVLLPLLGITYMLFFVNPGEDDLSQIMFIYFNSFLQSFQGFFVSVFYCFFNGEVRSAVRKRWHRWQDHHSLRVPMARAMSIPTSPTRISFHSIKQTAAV
T3 sequence (P24387 whole entry): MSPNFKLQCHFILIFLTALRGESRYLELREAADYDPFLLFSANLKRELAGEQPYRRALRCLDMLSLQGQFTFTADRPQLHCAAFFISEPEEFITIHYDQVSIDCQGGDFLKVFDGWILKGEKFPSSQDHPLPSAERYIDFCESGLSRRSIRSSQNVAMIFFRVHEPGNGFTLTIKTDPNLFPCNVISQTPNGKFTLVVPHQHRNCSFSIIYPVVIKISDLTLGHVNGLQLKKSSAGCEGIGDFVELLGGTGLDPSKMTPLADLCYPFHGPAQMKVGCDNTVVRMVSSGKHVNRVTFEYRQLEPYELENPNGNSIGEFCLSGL
Nature of the experiment: activators of CRF receptor 2 with binding protein – uHTS hits, confirmation (AID 602473). To be noted: read-out: EC50_Mean. The class given is functional.

The target of experiment [12] is T3, Corticotropin-releasing factor receptor 2/Corticotropin-releasing factor-binding protein. In words: Dose Response confirmation of uHTS hits for small molecule antagonists of the CRF-binding protein and CRF-R2 receptor complex. The class given is functional. To be noted: read-out: IC50_Mean.

Sequence of Luciferin 4-monooxygenase (P08659 whole entry): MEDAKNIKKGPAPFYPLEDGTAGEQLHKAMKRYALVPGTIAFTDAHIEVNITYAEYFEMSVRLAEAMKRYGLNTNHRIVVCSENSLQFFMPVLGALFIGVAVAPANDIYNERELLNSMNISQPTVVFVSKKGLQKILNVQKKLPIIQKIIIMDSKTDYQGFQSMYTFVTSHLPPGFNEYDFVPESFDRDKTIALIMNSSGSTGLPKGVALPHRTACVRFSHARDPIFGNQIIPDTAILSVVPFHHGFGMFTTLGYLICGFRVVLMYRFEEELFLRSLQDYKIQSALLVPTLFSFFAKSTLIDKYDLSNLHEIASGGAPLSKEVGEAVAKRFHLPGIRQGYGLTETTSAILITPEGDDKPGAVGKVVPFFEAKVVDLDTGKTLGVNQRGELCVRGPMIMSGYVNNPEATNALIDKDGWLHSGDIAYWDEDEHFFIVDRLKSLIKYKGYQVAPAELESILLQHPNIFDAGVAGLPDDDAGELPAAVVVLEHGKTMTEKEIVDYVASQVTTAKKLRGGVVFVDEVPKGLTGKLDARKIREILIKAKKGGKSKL
Sequence of Cytochrome P450 3A4 (P08684 whole entry): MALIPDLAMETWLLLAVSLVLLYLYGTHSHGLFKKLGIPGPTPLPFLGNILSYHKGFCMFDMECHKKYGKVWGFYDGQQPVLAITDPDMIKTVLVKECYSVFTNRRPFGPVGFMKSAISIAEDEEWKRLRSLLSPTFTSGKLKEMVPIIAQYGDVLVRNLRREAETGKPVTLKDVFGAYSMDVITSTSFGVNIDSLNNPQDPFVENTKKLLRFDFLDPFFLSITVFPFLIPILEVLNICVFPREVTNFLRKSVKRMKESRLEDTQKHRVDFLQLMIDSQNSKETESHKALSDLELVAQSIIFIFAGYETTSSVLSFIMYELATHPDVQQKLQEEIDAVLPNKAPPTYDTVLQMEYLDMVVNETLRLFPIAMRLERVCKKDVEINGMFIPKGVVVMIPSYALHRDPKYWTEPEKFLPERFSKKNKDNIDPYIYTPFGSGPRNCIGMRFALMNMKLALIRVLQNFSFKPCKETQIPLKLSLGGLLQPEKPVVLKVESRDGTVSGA

Regarding `Cc1ccc(C2(CCNCc3ccc(N(C)C)cc3)CCOC(C(C)C)C2)cc1` (centres undefined), the CC50 in experiment [1] was 12.6 µM (active). In the case of `COc1ccccc1C(=O)Nc1ccc(S(=O)(=O)N(C)c2ccccc2)cc1`, the CC50 in [1] was 29.4 µM (active). As for `Oc1ccc(/C=C/c2ccc3ccccc3n2)cc1`, the CC50 in experiment [1] is 19.7 µM (active). In addition, in experiment [2], the IC50 was 28 µM (active). In addition, the EC50 in [3] was 0.235 µM (active); in [4], 0.161 µM (active). Regarding `Cc1ccc(OCCn2cc(/C=C(\C#N)C(=O)NCC3CCCO3)c3ccccc32)cc1` (centres undefined), the CC50 in experiment [1] was 38.7 µM (active).

`CCc1nnc(S)n1/N=C/c1c(C)nn(-c2ccccc2)c1Cl`: the EC50 in experiment [5] was 19 µM (active).

As for `CCN(CC)c1nc(SCCOC(=O)Nc2ccccc2)nc(N(CC)CC)n1`, the EC50 in [6] is > 60 µM (not active); in experiment [8], 1.73 µM (active). Also, in [7], the AC50 was 2.79 µM (active).

On to `COc1ccc(NC(=O)CC2C(=O)N(C)C(=S)N2CCc2ccccc2)cc1` (centres undefined), for which the CC50 in experiment [1] was 18 µM (active). Turning to `O=C(O)c1ccc(-c2noc(-c3ccccc3F)n2)cc1`, the EC50 is 1.6 µM (active) in experiment [3] and 1.45 µM (active) in experiment [4]. `COc1cc(/C=N/NC(=O)/C(=C\c2ccc3c(c2)OCO3)NC(=O)c2ccccc2)ccc1O`: in experiment [2], the IC50 was 79.4 µM (active). Turning to `CCN1CCN(CCOc2ccccc2OCc2ccccc2)CC1`, the IC50 in experiment [2] is 94.5 µM (active). For `CCCCC(=O)Nc1nc(C)c(-c2csc(Nc3cc(Cl)ccc3OC)n2)s1`, in [1], the CC50 is 26.5 µM (active). As for `CCCn1c(C)nc2c(c1=O)c1nc3ccccc3nc1n2CCC1=CCCCC1`, the EC50 in experiment [9] is > 260 µM (inactive). Besides, the AC50 on Cytochrome P450 3A4 is 3.16 µM (inconclusive). For `COc1ccc(/C=C/C2=NC(=C\N(C)C)/C(=O)O2)cc1`, the EC50 in the experiment with H4 was 8.24 µM (active); in [10] it was 11.2 µM (active). In the case of `S=C(NCC1CC1)N/N=C/c1ccccc1Cl`, the EC50 in [3] and in experiment [4] was > 112 µM (not active) in each case. Consider `O=C(/C=C/c1c(F)cccc1Cl)Nc1nc2ccccc2[nH]1`, for which the EC50 is 10.4 µM (active) with H4 and 0.14 µM (inconclusive) in [10]. As for `Cc1ccccc1-n1c(C)nnc1SCc1nc2ccccc2s1`, the EC50 in [10] is 33.1 µM (active). For `COc1cc(/C=C/C(=O)OCC(=O)N2CCC(Cc3ccccc3)CC2)ccc1O`, the IC50 in experiment [2] was 47.7 µM (active).

For `Cc1ccc(C(C)C)c(OCCCCN2CCNCC2)c1`, the IC50 in [2] was 87.9 µM (active). As to `O=C(COc1ccc(Br)cc1CO)Nc1ccccc1F`, the half-maximal cytotoxic concentration (CC50) in [1] is 35.2 µM (active). Take `CCCCn1c(N)c(N(CC(C)C)C(=O)c2ccc(Br)s2)c(=O)[nH]c1=O`: the EC50 in [3] and in [4] was > 112 µM (not active) throughout. With `COc1cc([C@H]2OC[C@H]3[C@@H]2CO[C@H]3c2ccc(O)c(OC)c2)ccc1O` [PINORESINOL], in [2], the IC50 was 171 µM (active). `Cc1cc2nnc(SC(C)C)n2c2ccccc12`: in experiment [1], the CC50 is > 50 µM (active). For `COc1ccc(OC)c(Nc2nc(NCc3ccco3)c3ccccc3n2)c1`, the EC50 in experiment [3] is 49 µM (active); in [4] it was 18.7 µM (active).

Consider `Cc1ccc(-c2nc3ccccc3[nH]2)s1`, for which the EC50 is 7.89 µM (active) in [3] and 0.951 µM (active) in [4]. For `COc1ccc(Br)cc1CN1CCC(N2CCCC2)CC1`, the IC50 in [2] is 59.6 µM (active). For `O=C(CCN1Cc2ccccc2C1)c1ccc2c(c1)OCCO2`, in experiment [7], the AC50 was 11.5 µM (active).

With `COc1ccc(C(=O)Nc2ccccc2C(=O)N/N=C/c2ccncc2)cc1OC`, the EC50 in experiment [3] is 0.564 µM (active); in [4], 0.609 µM (active). In the same order, the values of `CSc1ccc(/C=N/NC(=O)c2cc(O)cc(O)c2)cc1` are 10 µM (active) and 1.22 µM (active). In the case of `COc1cc(/C=N/NC(=O)c2ccoc2C)ccc1O`, in experiment [2], the IC50 was 27.3 µM (active). Same read-out and setting: the value for `COc1cc(/C=N\NC(=O)CNC(=O)C(c2ccccc2)c2ccccc2)ccc1O` was 54.6 µM (active).

With `[2H]c1c([2H])c([2H])c(-c2nc(N3CCCCCC3)sc2C(=O)c2ccccc2)c([2H])c1[2H]`, the CC50 in experiment [1] was 41.6 µM (active). Turning to `O=C(CN1CCN(C2CCCCC2)CC1)Nc1ccccc1-c1ccccc1`, the IC50 in experiment [2] is 78.1 µM (active). For the compound `CC(C)CCNc1nc(-c2ccco2)c2c(c1C#N)CCCC2`, the AC50 in experiment [7] was 10.4 µM (active). `CC(CCc1ccco1)NC(=O)CCc1nnc2ccc(NCc3ccccc3)nn12` (centres undefined): the figures for the EC50 in experiment [11], in [3] and in experiment [4] were > 53 µM (inactive), > 112 µM (not active) and > 112 µM (not active), respectively. Also, the IC50 in experiment [12] is > 47.1 µM (inactive). `O=C(CSc1ccc(-c2ccccc2)nn1)N1CCCCC1`: the EC50 is 65.2 µM (active) in the experiment with H4 and 25.4 µM (active) in experiment [10].

Consider `COc1ccc(C)cc1NC(=O)C(NCC(O)c1ccccc1)c1ccccc1` (centres undefined), for which the IC50 in experiment [2] is 96.8 µM (active). Take `O=c1oc(Nc2cccc(Cl)c2)nc2ccccc12`: the EC50 in [3] is 16 µM (active); in experiment [4], 37.7 µM (active). In the same order, the values of `CCc1ccc(NC(=O)Nc2ccsc2C(=O)OC)cc1` are 2.06 µM (active) and 0.701 µM (active).

Turning to `COc1cc(C(=O)N2CCN(c3ccc([N+](=O)[O-])cc3)CC2)ccc1OCc1c(C)noc1C`, the EC50 is > 112 µM (not active) in [3] and 40.2 µM (active) in experiment [4]. Regarding `COc1ccccc1N(Cc1ccccc1)S(=O)(=O)c1cccc(C(=O)Nc2ccc(C)cn2)c1`, the CC50 in experiment [1] was 11 µM (active). Moreover, the results for the EC50 in experiment [6] and in experiment [8] were > 30 µM (not active) and 1.58 µM (active), respectively.
